Data set [1] deals with C8161 human melanoma cells. The data set can be described thus: C8161 melanoma xenograft model: tumor growth and survival. Particulars: for Tumor growth suppressed relative to control group 1: day 42.
Description: Sixty female athymic nude mice were intradermally inoculated with C8161 human melanoma cells and randomized into six groups of 10 mice. Three groups received monotherapy treatment with either OT-101 (trabedersen) (16 mg/kg) (Group 2) or Dacarbazine (DTIC; 1 or 10 mg/kg; Groups 3, 4). Two groups received combination therapy with OT-101/DTIC at 16/1 mg/kg or 16/10 mg/kg (Groups 5 and 6). Vehicle (0.9% saline, Groups 1, 3, and 4) and OT-101 were administered 3 times/week via subcutaneous injection. Vehicle (0.9% saline, Groups 1 and 2) and DTIC (1 or 10 mg/kg) were administered via intraperitoneal injection four times/week. All OT-101/Trabedersen treatments commenced at day 0 of the study and all DTIC treatments commenced on day 14. Mice were monitored for adverse effects, body weight and tumor size three times weekly. The tumor, lungs, liver and kidneys were excised from all mice at termination and weighed.
The test system of data set [2] is HUP-T3 pancreatic cancer cells. The data set can be described thus: Cellular proliferation of HUP-T3 pancreatic cancer cells in vitro. In kind it is cell-based. Particulars: treatment on day 1 for 5 h, measured after 7 days. The protocol:
(§1) The aim of the study was to determine the effect of AP12009 (trabedersen) treatment in combination with 5-Fluorouracil (5-FU) on TGFβ2 secretion and on cellular proliferation of HUP-T3 pancreatic cancer cells and WiDr colon cancer cells in vitro.
(§2) 10 μM of AP12009 as monotherapy decreased cell proliferation (53% proliferation of untreated control) and TGFβ2 expression (42% of untreated control) in HUP-T3 cells.

In data set [3] the test system is WiDr colon cancer cells. The data set can be described thus: Cellular proliferation of WiDr colon cancer cells in vitro. In kind it is cell-based. Particulars: treatment on day 1 for 5 h only, ca.
Source text: as §1

The subject of data set [4] is TGFβ2. The data set can be described thus: TGFβ2 secretion/expression in WiDr colon cancer cells. It is filed as cell-based. Conditions: ca.
Source text: as §1

Data set [5] has as its system TGFβ2. The data set can be described thus: TGFβ2 secretion/expression in HUP-T3 pancreatic cancer cells. Particulars: ca. It is filed as cell-based. The protocol: as §1, §2

In the case of `CN(C)/N=N/c1[nH]cnc1C(N)=O` [DTIC, Dacarbazine], the “Tumor growth suppressed relative to control group 1” value in data set [1] (group 3: DTIC 1 mg/kg i.p. four times/week from day 14) is reported as −2%; in data set [1] (group 4: DTIC 10 mg/kg i.p. four times/week from day 14), 78%. In addition, the median survival came out at 47 days in data set [1] (group 3: DTIC 1 mg/kg) and 60 days in data set [1] (group 4: DTIC 10 mg/kg).
As for `O=c1[nH]cc(F)c(=O)[nH]1` [5-FU, 5-Fluorouracil, reference compound], in data set [2], the “5-FU concentrations that dose-dependently reduced cell proliferation” value was more than 10 µM. For the same compound, the “5-FU concentrations that concentration-dependently reduced cell proliferation” value in data set [3] was more than 38 µM. Further, the “5-FU concentrations at which TGFβ2 was suppressed” value in data set [4] and in data set [5] was more than 75 µM in each case.

Source of the values: patent US20170226518A1, “COMPOSITIONS AND METHODS FOR TREATING CANCER” (Autotelic LLC, priority 2016, published 2017).
